Assays:
human leptin = experiment: Mouse intravenous tail vein injection of modified synthetic leptin mRNA, human leptin ELISA; type: in vivo, C57BL/6 mouse; conditions: human leptin in mouse plasma, 10 μg leptin mRNA, 24 h
Method: Before the tail vein injection, mouse body weights were recorded and diet weighted, with mice grouped according to their body weights. Mice were prepared by warming them under a heating lamp for ˜2 minutes, with the mice about 12 inches from heat lamp.
For the tail vein injection procedure, the mice were placed in a restrainer and their tails cleaned with 70% alcohol. A 27 gauge needle (Becton Dickinson, Catalogue #305109) connected with a 1 ml syringe (Becton Dickinson, Catalogue #309659) was inserted into the tail vein, with bevel facing up, and the syringe plunger was pulled backwards to ensure blood is drawn into the syringe. The desired volume of modified synthetic leptin mRNA was injected by hand with moderate pressure and speed. The needle was then withdrawn and bleeding stopped by adding pressure to injection site with gauze.
Single housed, 8-9 week old, male C57BL/6 mice were used for the in vivo study. FPLC purified modified synthetic leptin mRNA (SEQ ID NO: 5) in which the uridines were substituted with pseudouridine was packaged in a cationic lipid (N:P molar ratio=8:1) and then were diluted in injectable saline at a dose of 10 μg per average group body weight.
On day 0, animals were weighed and sorted according to average body weight. Mice were dosed, and food intake (FI) was recorded, on each of days 1-7 and days 9, 11, and 16.
Human leptin in mouse plasma was measured by ELISA. Antibodies purchased from the R&D Systems duoset (Cat# DY398E, part#840279 for capture antibody and part#840280 for detection antibody) were reconstituted using PBS and titered, again using PBS. The capture antibody was coated at 4 ug/ml in 30 ul/well on a white Nunc® Maxisorp 384 well plate (Cat#460372). After an overnight incubation at room temperature the capture antibody was aspirated and the plate blocked for 2 hours at room temperature with 90 ul/well of KPL milk blocker (Cat#50-82-00). Once the incubation was completed the plate was aspirated and recombinant standards and samples were added to the plate at 30 ul/well for 2 hours at 37° C. while shaking at 600 rpm. Sample/standard dilutions were made using casein sample diluent. Washing/aspiration 3 times with 100 ul/well followed, using Teknova plate wash solution (Cat# P1192). Next, detection antibody was diluted using casein detection antibody diluent to 12.5 ng/ml and added at 30 ul/well for 2 hours room temperature. After this incubation, the plate was washed again and a solution of poly-streptavidin-HRP (Cat#21140) at a 1:1250 dilution in HRP dilution buffer was added to each well (30 ul/well) and incubated for 30 minutes room temperature. A final wash/aspiration removed the HRP solution and a chemiluminescent substrate was added at 30 ul/well (Cat#1859678 & 1859679). The plate was quickly read using a SpectramaxM5 plate reader with a 50 ms integration time. The dynamic range of the ELISA is from 100-2,000 pg/ml (6.25-125 pM) of human leptin.

PLK-1 mRNA = experiment: LS411N Xenograft Assay; type: in vivo, Nu/Nu mice; conditions: percent knock down of PLK-1 mRNA vs control in LS411N tumors, IV 3 mg/kg daily for three days
Method: Female Nu/Nu mice (6-8 weeks old) were implanted subcutaneously with 5×10^6 LS411N cells. Tumor growth was monitored by caliper measurement before treatment initiation. Mice bearing 150-250 mm^3 subcutaneous tumors were randomized and enrolled in the study. The stock siRNA formulations were diluted to […] with PBS for dosing. Animals enrolled in different groups received a single daily bolus IV injection of 3 mg/kg siRNA for three days. Tumors were harvested 24 hours post last injection to assess target gene regulation by qRT-PCR.
Lipid nanoparticles comprising lipid compounds of formula (I) and the PLK1-424 siRNA duplex sequence listed above were tested in the LS411N Xenograft Assay. The results of this assay are given in Table 5 below as a percent knock down of PLK-1 mRNA as compared to the control when administered as a single daily dose for three days at a dose of 3 mg/kg.

[1] = test system: plasma Factor VII enzyme activity; experiment: Mouse Factor VII dosing / Factor VII Activity Assay; type: in vivo; conditions: percent knock down of plasma Factor VII activity, CD-1 mice, 48 h; for KD FVII 0.03 mg/kg: single IV dose 0.03 mg/kg, LNP Chol/DSPC/S010 45/44/9/2
Procedure, shortened: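 Female CD-1 mice (~25 g) received a single IV tail-vein dose of lipid-nanoparticle-formulated Factor VII siRNA (0.3 or 0.03 mg/kg). Plasma taken ~48 h later; FVII activity measured chromogenically against vehicle-control plasma standard curve, reported as % knockdown.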

[2] = Particle size of lipid nanoparticle (dynamic light scattering, Malvern Zetasizer); type: physicochemical
Excerpt: The lipid nanoparticles have a size of about 1 to about 2,500 nm, about 1 to about 1,500 nm, about 1 to about 1,000 nm, in a sub-embodiment about 50 to about 600 nm, in a sub-embodiment about 50 to about 400 nm, in a sub-embodiment about 50 to about 250 nm, and in a sub-embodiment about 50 to about 150 nm. Unless indicated otherwise, all sizes referred to herein are the average sizes (diameters) of the fully formed nanoparticle, as measured by dynamic light scattering on a Malvern Zetasizer. The nanoparticle sample is diluted in phosphate buffered saline (PBS) so that the count rate is approximately 200-400 kcts. The data is presented as a weighted average of the intensity measure. Unless indicated otherwise, all particle size measurements referred to in Tables 4 and 5 are the Z-average particle size of the fully formed nanoparticle, as measured by dynamic light scattering on a Malvern Zetasizer. The nanoparticle sample was diluted in phosphate buffered saline (PBS) so that the count rate is approximately 200-400 kcts.

[3] = Polydispersity index (PDI) of lipid nanoparticle (dynamic light scattering); type: physicochemical
Method: Unless indicated otherwise, all PDIs referred to herein are the PDI of the fully formed nanoparticle, as measured by dynamic light scattering on a Malvern Zetasizer. The nanoparticle sample was diluted in phosphate buffered saline (PBS) so that the count rate was approximately 200-400 kcts. The data is presented in Tables 4 and 5 as a weighted average of the intensity measure.

[4] = FVII siRNA LNP, Chol/DSPC/S010, molar ratio 45/44/9/2, Z-average
[5] = PLK1-424 siRNA LNP, Chol/DSPC/S010 45/44/9/2
[6] = FVII siRNA LNP, Chol/DSPC/S010, molar ratio 45/44/9/2
[7] = PLK1-424 siRNA LNP, Chol/DSPC/PEG-DSG 45/44/9/2

Structure (SMILES) | Leptin expression IV-C57BI/6, 24 h (human leptin) | LS411 KD 3 × 3 mg/Kg (PLK-1 mRNA; LNP Chol/DSPC/S010 45/44/9/2) | KD FVII 0.03 mg/kg [1] | Size (nm) [2, 4] | PDI [3, 6] | further results
CCCCCCCC(=O)OCCCCCC(=O)OCc1cc(COC(=O)CCCCCOC(=O)CCCCCCC)cc(CN(C)C)c1 [Example 85, (((5-((dimethylamino)methyl)-1,3-phenylene)bis(methylene))bis(oxy))bis(6-oxohexane-6,1-diyl)dioctanoate] | 1.78 ng/mL | – | – | – | – | –
CCCCCCCC(=O)OCCCCCCCCOc1cc(CN(C)C)cc(OCCCCCCCCOC(=O)CCCCCCC)c1 [Example 42, ((5-((dimethylamino)methyl)-1,3-phenylene)bis(oxy))bis(octane-8,1-diyl)dioctanoate] | – | 50% | 92.8% | – | – | –
CCCCCCCC(=O)OCC(CCOc1cc(CN(C)C)cc(OCCC(COC(=O)CCCCCCC)OC(=O)CCCCCCC)c1)OC(=O)CCCCCCC (stereo not shown) [Example 91, 4,4′-((5-((dimethylamino)methyl)-1,3-phenylene)bis(oxy))bis(butane-1,2-diyl)tetraoctanoate] | – | 45% | – | 111.9 nm | 0.053 | Size (nm) ([2]; FVII siRNA LNP, Chol/DSPC/PEG-DMG, molar ratio 45/44/9/2, Z-average): 124.3 nm; Size (nm) [2, 5]: 136.1 nm; KD FVII 0.3 mg/kg ([1]; single IV dose 0.3 mg/kg, LNP Chol/DSPC/PEG-DMG 45/44/9/2): 99.0%; PDI ([3]; FVII siRNA LNP, Chol/DSPC/PEG-DMG, molar ratio 45/44/9/2): 0.06; PDI [3, 5]: 0.032
CCCCCCCC(=O)OC[C@@H](CCOc1cc(CN(C)C)cc(OCC[C@@H](COC(=O)CCCCCCC)OC(=O)CCCCCCC)c1)OC(=O)CCCCCCC [Example 92, (R)-4-(3-((S)-3,4-bis(octanoyloxy)butoxy)-5-((dimethylamino)methyl)phenoxy)butane-1,2-diyldioctanoate] | 1.34 ng/mL | – | 89.4% | – | – | –
CCCCC/C=C\C/C=C\CCCCCCCC(=O)OCCCCOc1cc(CN(C)C)cc(OCCCCOC(=O)CCCCCCC/C=C\CCCCCCCC)c1 [Example 63, (9Z,12Z)-4-(3-((dimethylamino)methyl)-5-(4-(oleoyloxy)butoxy)phenoxy)butyl octadeca-9,12-dienoate] | – | – | 75% | 91.66 nm | 0.057 | LS411 KD 3 × 3 mg/Kg (PLK-1 mRNA; LNP Chol/DSPC/PEG-DSG 45/44/9/2): 66%; Size (nm) [2, 7]: 108.6 nm; PDI [3, 7]: 0.047
